Measurements as given in US4379158A, “Antisecretory imidazole amidine compounds, composition and method of use” (Yamanouchi Pharmaceutical Co., Ltd., priority 1977, dated 1983).
Counter-ions that a name gives are not always drawn.

What was measured:
Histamine H2-receptor = target: T1, Histamine H2-receptor (Cavia porcellus, UniProt P47747); test: Histamine H2-receptor blocking activity of test compounds in isolated guinea-pig atria (histamine-induced tachycardia); assay type: cell-based, guinea-pigs; settings: 5×10^-6 M histamine, Krebs-Henseleit solution, 36° C., mean ± S.E. from 5 experiments, read-out: ED50 (dose producing a 50% blockade of chronotropic action of histamine)
T1 construct: Atrial preparations isolated from guinea-pigs; from tissue; host or cells: isolated guinea-pig atria
Experimental: Atrial preparations isolated from guinea-pigs were suspended in Krebs-Henseleit solution at 36° C. (Mitchell, I. et al. Europ. J. Pharmacol., 34, 95, 1975). The dose producing a 50% blockade of chronotropic action of 5×10^-6 M histamine was obtained from the dose-respose curve in which the inhibition percentage was plotted semilogarithmically against dose.

gastric acid secretion = test: Effect of test compounds on gastric acid secretion in pylorus-ligated rats; assay type: in vivo; settings: 50 mg/kg intraduodenal, immediately after pylorus ligation, 7 rats, mean ± S.E., *p < 0.01; for Gastric contents, Volume: control 3.2 ± 0.3; for Gastric contents, Acid output: control 380 ± 40.1
Experimental: Rats weighing about 200 g. were deprived of food for 24 hours and their pylorus was ligated after an abdominal incision under ether anesthesia (Shay, H. et al.: Gastroenterol., 5, 43, 1945). Test compounds were intraduodenally given immediately after the pylorus ligation. The animals were sacrificed 4 hours after drug administration and gastric contents were collected. The gastric juice was titrated with 0.05 N NaOH to pH 7.0 for measurement of acidity.

H2-receptor = settings: Ash and Schild 1966; Black et al. 1972; cited from earlier work

T1 sequence (P47747 whole entry): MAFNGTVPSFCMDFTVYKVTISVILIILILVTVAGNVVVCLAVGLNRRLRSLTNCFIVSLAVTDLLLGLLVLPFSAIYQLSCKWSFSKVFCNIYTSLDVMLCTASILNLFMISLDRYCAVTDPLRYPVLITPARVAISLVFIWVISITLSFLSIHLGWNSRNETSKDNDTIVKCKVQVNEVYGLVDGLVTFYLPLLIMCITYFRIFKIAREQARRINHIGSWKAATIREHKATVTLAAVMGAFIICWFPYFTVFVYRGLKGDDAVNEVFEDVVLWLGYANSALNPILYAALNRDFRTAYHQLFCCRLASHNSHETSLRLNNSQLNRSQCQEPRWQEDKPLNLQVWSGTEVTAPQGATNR

Row | SMILES | IC50 (Histamine H2-receptor) | Gastric contents, Volume (gastric acid secretion) | Gastric contents, Acid output (gastric acid secretion) | inhibition/antagonism of the effects of histamine on gastric acid secretion and heart rate in isolated atrium (in words) (H2-receptor)
1 | C#CCN=C(N)CCSCc1ccc(CN(C)C)o1 [Example 42, 3-[5-(Dimethylaminomethyl)furfurylthio]-N2-propynylpropionamidine dihydrochloride] |  | 1.7 ± 0.3 ml/4 hours/rat | 137 ± 31.5 μEq/4 hours/rat | 
2 | COc1ccc(CN(CCN(C)C)c2ccccn2)cc1 [mepyramine] |  |  |  | not inhibited
3 | C/N=C(\S)NCCSCc1[nH]cnc1C [metiamide] |  |  |  | antagonized

Continued, in another order:

Row | IC50 (Histamine H2-receptor) | SMILES | Gastric contents, Volume (gastric acid secretion) | Gastric contents, Acid output (gastric acid secretion) | inhibition/antagonism of the effects of histamine on gastric acid secretion and heart rate in isolated atrium (in words) (H2-receptor)
4 | 2.3 µM | C#CCN=C(N)CCSCc1nc[nH]c1C [Example 40, N2-Propynyl-3-[(5-methylimidazol-4-yl)methylthio]-propionamidine dihydrochloride] |  |  | 
5 | 2.1 µM | CN(C)Cc1ccc(CSCCC(N)=NC#N)o1 [Example 41, NCyano-3-[5-(dimethylaminomethyl)furfurylthio]-propionamidine] | 1.5 ± 0.2 ml/4 hours/rat | 97 ± 17.2 μEq/4 hours/rat | 
6 | 0.9 µM | Cc1[nH]cnc1CSCCC(N)=NC(N)=O [Example 44, N-carbamoyl-3-(4-methyl-5-imidazolylmethylthio)-propionamidine] | 1.4 ± 0.2 ml/4 hours/rat | 79 ± 9.0 μEq/4 hours/rat | 
